Experimental data as given in article PMC5085761 (International Journal of Molecular Sciences, 2016).

How the values were obtained:
human BCRP = biological target: T1, human BCRP (Homo sapiens, UniProt Q9UNQ0); assay: [14C]fluciclovine uptake by BCRP-expressing inside-out vesicles; format: in vitro ADME
T1 construct: purchased GenoMembrane Co., Ltd. (Kanagawa, Japan); host or cells: Sf9
T1 sequence (Q9UNQ0 1-655): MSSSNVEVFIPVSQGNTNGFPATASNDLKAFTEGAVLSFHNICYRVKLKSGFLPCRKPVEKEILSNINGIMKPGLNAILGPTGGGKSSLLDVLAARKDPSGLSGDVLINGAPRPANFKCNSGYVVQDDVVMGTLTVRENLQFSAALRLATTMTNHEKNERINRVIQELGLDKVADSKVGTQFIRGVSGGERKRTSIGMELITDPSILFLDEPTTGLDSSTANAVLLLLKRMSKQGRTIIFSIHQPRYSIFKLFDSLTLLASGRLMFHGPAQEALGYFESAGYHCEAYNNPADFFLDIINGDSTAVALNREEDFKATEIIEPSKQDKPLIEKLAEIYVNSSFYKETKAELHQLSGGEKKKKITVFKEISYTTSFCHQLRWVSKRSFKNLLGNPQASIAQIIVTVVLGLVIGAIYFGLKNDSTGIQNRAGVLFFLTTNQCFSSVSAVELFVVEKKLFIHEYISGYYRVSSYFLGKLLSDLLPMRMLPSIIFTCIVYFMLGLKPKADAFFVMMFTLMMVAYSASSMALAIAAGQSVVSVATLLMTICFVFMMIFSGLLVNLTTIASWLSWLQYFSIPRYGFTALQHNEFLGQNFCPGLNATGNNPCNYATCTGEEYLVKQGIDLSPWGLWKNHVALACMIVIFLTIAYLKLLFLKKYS
Description: (§1) For ABC transporters, experimental kits containing Sf9-derived vesicles with high expression levels of human P-gp, MRP4, BCRP, and each ABC transporter (including buffer, ATP/AMP solution, and glutathione) were purchased from GenoMembrane Co., Ltd. (Kanagawa, Japan).
(§2) Vesicular transport assays were carried out according to the manufacturer’s protocol. […] The reaction was started by suspending 50 μg of vesicles (10 μL) in 40 μL of the reaction buffer. After incubation for an appropriate period of time, the reaction was stopped by the addition of ice-cold stop buffer (40 mM MOPS-Tris and 70 mM KCl; pH 7.0), after which the solution was filtered through a 0.45 μm HA filter (Millipore Corp., Billerica, MA, USA) using suction, and was washed twice in 5 mL of ice-cold stop buffer. The radioactivity of the filter was measured with a Tri-Carb 2910TR liquid scintillation counter (PerkinElmer) using Ultima Gold (PerkinElmer). The amount of tracer uptake was normalized to the membrane protein amount described in the product information sheets.

human MRP4 = biological target: T2, human MRP4 (Homo sapiens, UniProt O15439); assay: Inhibition of tracer uptake in MRP4-expressing vesicles; format: in vitro ADME; conditions: MRP4, tracer [3H]E2G 10 µM
T2 construct: purchased GenoMembrane Co., Ltd. (Kanagawa, Japan); host or cells: Sf9
T2 sequence (O15439 1-1325): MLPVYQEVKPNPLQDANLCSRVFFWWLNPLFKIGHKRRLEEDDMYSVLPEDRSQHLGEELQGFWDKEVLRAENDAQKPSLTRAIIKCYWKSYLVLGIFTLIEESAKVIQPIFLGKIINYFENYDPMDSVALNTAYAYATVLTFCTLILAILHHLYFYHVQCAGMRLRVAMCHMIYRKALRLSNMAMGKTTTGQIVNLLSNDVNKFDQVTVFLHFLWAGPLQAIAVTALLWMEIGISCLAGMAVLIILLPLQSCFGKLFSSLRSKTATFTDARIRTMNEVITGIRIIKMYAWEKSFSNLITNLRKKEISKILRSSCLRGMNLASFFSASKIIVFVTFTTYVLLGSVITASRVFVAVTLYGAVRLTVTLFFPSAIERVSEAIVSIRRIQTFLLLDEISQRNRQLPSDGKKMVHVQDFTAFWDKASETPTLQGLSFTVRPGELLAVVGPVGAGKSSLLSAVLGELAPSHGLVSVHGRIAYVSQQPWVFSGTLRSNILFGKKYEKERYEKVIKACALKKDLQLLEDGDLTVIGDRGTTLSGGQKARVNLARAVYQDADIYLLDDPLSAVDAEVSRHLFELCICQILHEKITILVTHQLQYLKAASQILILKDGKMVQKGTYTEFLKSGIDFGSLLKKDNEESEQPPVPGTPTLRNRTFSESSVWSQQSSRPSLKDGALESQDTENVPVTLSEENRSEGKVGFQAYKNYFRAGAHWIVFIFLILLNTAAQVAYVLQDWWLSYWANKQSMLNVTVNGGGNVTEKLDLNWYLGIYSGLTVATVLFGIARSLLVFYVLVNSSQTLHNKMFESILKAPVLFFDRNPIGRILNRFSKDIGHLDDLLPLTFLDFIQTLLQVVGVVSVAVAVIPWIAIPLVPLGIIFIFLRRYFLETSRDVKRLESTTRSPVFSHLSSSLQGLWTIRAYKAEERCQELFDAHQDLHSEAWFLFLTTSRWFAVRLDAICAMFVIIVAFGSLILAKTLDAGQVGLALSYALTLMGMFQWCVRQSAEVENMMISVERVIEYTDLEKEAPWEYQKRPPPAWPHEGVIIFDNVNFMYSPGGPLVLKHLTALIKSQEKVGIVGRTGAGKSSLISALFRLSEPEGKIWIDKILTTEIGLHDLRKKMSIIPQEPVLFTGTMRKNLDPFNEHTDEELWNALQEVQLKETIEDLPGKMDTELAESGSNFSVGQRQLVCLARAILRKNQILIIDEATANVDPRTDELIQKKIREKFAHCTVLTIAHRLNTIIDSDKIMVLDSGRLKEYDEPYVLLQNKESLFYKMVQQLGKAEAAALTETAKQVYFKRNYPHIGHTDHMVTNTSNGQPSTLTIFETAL
Description: as §1, §2

IC50 (human MRP4) [mM] | SMILES | uptake compared with control vesicles (human BCRP)
 | N[14C]1(C(=O)O)CC(F)C1 (stereo not drawn) [[^14C]fluciclovine, trans-1-amino-3-fluoro[1-^14C]cyclobutanecarboxylic acid] | reduced in comparison to that of the control vesicles, albeit not significantly
9.28 ± 1.9 | N[C@]1(C(=O)O)C[C@@H](F)C1 [fluciclovine] | 
